In US20100076017A1, “SITAMAQUINE TOSYLATE FOR THE TREATMENT OF LEISHMANIASIS” (priority 2006, published 2010):
Counter-ions that a name gives are not always drawn.

Test: hygroscopicity / developability characteristics of the salt form
Format: physicochemical
Conditions: solid salt form; poor developability characteristics
Text: This means that reproducibility of standard batches of drug is very difficult, and that the drug would have a very short shelf life in those countries where it is particularly needed.

Structure (SMILES): CCN(CC)CCCCCCNc1cc(OC)cc2c(C)ccnc12 [dihydrochloride salt, N,N-diethyl-N′-(6-methoxy-4-methyl-8-quinolinyl)-1,6-hexane diamine]
- relative humidity at which the salt is hygroscopic: about 60 % relative humidity
